Source: patent US9492471B2, “Methods of treating a disease or disorder associated with Bruton'S Tyrosine Kinase” (Celgene Avilomics Research, Inc., priority 2013, dated 2016)
Read-outs that look alike come from different tables or passages of the source.

Assays:
Test in all cases: HotSpot kinase profiling
Assay type in all cases: biochemical
BRK = target: T1, BRK (Homo sapiens, UniProt Q13882)
T1 construct: purchased Reaction Biology Corp
Outline: (§1)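 Activity is measured by radiolabel transfer captured on P81 filters after a 2 h room-temperature reaction of kinase, substrate and cofactors. Values are percent inhibition against DMSO.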

CDK16/cyclin Y = target: T2, CDK16/cyclin Y (Homo sapiens, UniProt Q00536)
T2 construct: purchased Reaction Biology Corp
Outline: as §1

IKKb/IKBKB = target: T3, IKKb/IKBKB (Homo sapiens, UniProt O14920)
T3 construct: purchased Reaction Biology Corp
T3 sequence (O14920 1-756): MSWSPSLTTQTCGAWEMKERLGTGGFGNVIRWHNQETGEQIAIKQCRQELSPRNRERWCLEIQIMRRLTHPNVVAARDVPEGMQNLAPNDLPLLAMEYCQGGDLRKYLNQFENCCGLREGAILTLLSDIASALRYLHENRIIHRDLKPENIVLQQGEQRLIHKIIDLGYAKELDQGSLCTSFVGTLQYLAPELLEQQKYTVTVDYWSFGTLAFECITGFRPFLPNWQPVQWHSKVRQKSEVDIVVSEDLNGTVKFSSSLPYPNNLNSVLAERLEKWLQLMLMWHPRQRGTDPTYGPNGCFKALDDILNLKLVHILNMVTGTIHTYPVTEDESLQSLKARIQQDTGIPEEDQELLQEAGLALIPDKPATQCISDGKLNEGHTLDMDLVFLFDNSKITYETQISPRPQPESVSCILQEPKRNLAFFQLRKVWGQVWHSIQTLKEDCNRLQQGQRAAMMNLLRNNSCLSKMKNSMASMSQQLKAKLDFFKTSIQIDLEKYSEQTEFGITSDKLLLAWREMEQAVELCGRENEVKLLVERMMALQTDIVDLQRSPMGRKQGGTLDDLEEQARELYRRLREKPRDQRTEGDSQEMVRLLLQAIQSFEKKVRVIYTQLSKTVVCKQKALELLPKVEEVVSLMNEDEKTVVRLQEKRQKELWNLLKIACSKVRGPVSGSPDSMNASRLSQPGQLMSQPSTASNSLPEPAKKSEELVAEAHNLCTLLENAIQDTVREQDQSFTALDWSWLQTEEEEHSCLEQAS
Outline: as §1

MARK2/PAR-1Ba = target: T4, MARK2/PAR-1Ba (Homo sapiens, UniProt Q7KZI7)
T4 construct: purchased Reaction Biology Corp
Outline: as §1

PDK1/PDPK1 = target: T5, PDK1/PDPK1 (Homo sapiens, UniProt O15530)
T5 construct: purchased Reaction Biology Corp
T5 sequence (O15530 1-556): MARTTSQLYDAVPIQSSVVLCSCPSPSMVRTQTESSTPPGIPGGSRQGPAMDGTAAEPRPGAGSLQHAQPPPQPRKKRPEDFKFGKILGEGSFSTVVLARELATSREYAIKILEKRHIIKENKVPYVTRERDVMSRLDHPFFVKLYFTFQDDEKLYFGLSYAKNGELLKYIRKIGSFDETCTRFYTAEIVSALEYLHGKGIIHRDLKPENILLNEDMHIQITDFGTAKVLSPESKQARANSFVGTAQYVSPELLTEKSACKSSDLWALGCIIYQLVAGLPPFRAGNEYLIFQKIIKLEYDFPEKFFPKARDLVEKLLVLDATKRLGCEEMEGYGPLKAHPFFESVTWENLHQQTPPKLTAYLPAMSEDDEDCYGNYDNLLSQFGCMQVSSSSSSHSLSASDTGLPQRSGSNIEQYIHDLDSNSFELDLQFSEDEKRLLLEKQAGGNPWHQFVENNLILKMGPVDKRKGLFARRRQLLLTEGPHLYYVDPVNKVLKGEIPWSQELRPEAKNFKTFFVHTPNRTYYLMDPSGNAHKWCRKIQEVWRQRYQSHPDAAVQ
Outline: as §1

RSK3 = target: T6, RSK3 (Homo sapiens, UniProt Q15349)
T6 construct: purchased Reaction Biology Corp
Outline: as §1

ZAP70 = target: T7, ZAP70 (Homo sapiens, UniProt P43403)
T7 construct: purchased Reaction Biology Corp
T7 sequence (P43403 1-619): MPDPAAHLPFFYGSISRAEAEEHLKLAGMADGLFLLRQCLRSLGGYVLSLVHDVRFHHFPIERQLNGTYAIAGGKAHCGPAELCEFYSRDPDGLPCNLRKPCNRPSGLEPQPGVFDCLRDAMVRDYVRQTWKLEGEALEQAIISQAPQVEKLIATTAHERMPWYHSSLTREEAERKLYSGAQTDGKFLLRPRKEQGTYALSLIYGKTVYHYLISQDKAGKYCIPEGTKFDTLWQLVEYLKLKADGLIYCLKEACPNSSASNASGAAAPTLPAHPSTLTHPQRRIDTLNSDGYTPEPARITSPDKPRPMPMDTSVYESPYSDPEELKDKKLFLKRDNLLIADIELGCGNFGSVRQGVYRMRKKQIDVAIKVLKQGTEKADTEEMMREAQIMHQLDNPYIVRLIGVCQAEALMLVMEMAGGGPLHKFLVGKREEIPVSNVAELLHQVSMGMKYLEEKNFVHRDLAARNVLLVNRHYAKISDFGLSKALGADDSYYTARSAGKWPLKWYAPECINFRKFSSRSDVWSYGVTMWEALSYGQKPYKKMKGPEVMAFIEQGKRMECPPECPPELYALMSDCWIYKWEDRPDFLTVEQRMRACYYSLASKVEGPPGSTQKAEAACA
Outline: as §1

[1] = read-out: % Enzyme Activity (relative to DMSO controls) Run 1
[2] = read-out: % Enzyme Activity (relative to DMSO controls) Run 2

T4 sequence (Q7KZI7 1-725 isoform Q7KZI7-4): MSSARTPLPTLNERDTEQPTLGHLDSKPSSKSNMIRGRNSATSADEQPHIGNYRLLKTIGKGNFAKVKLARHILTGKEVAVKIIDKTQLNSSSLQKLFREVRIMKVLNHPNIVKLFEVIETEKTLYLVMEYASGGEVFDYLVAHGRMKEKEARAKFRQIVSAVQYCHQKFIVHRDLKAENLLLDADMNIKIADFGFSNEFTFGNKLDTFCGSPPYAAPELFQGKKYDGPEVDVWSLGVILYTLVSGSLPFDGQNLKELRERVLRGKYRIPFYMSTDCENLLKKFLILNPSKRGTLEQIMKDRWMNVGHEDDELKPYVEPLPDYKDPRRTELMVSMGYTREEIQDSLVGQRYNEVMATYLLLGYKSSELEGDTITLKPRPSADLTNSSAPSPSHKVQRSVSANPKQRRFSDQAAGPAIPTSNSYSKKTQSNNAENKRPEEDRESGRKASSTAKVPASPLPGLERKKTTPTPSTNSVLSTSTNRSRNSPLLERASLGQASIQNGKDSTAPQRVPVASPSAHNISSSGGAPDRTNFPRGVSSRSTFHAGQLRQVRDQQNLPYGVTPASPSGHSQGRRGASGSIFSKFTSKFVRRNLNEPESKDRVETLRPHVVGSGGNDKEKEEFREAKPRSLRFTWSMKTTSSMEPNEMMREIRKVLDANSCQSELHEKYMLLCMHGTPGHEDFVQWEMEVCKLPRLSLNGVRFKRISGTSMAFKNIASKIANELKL
T1 sequence (Q13882 whole entry): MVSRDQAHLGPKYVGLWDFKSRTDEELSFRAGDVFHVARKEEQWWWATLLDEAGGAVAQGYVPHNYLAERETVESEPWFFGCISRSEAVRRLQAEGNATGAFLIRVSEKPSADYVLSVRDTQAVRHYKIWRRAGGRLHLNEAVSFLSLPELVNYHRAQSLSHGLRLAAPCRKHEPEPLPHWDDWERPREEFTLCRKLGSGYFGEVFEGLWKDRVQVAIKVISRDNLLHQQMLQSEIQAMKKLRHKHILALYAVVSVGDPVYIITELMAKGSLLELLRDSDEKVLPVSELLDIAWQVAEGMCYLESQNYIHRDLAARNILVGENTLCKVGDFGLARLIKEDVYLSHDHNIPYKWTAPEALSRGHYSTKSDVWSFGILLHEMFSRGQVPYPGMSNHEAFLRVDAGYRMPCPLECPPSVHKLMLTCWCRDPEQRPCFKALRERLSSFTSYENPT
T6 sequence (Q15349 whole entry): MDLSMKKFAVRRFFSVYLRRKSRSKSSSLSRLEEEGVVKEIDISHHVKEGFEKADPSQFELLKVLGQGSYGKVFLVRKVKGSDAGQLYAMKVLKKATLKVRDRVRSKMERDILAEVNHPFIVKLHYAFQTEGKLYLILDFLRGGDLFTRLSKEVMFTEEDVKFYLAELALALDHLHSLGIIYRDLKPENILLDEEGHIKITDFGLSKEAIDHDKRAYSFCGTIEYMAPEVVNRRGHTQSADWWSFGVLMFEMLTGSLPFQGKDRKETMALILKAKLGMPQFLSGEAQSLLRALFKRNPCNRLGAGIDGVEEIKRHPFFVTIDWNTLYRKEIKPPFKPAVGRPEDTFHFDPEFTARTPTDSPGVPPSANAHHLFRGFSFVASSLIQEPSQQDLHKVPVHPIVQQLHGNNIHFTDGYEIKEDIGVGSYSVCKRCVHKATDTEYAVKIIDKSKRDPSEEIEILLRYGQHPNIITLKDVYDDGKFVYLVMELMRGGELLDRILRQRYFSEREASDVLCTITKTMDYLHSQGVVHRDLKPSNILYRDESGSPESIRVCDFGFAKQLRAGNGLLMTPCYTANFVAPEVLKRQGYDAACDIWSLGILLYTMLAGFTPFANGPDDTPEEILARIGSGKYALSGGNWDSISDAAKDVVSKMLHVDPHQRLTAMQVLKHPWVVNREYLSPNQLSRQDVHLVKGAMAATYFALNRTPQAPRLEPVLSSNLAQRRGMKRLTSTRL
T2 sequence (Q00536 whole entry): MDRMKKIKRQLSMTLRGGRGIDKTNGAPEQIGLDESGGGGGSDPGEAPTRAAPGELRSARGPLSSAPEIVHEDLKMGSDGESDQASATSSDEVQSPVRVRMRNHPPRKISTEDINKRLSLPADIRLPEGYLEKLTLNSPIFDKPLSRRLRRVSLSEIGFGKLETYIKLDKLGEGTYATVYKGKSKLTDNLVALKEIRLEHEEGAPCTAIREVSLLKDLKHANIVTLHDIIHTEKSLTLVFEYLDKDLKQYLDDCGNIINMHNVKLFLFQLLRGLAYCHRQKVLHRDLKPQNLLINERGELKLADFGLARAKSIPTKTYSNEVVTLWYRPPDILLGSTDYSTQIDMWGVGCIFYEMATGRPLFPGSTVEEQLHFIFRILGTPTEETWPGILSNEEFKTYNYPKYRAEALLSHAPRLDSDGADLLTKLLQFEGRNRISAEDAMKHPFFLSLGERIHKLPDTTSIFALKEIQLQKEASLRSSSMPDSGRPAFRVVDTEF
T2 sequence (Q8ND76 whole entry partner): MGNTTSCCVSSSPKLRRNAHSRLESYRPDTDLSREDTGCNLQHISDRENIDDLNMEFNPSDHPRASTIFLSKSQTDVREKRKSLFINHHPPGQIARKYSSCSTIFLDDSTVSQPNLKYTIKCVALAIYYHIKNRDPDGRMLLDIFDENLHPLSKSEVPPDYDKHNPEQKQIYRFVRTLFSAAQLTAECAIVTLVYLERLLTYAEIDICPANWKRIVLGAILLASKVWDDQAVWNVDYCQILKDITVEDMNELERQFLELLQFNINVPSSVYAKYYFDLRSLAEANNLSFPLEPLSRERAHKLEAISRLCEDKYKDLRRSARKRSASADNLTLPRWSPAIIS

C=CC(=O)Nc1cccc(Nc2nc(Nc3ccc(OCCOC)c(F)c3)ncc2F)c1 [Compound 2]
inhibition at 3 µM (BRK): 75% | remaining activity at 3 µM (BRK; [1]): 25.1% | remaining activity at 3 µM (BRK; [2]): 25% | inhibition at 3 µM (CDK16/cyclin Y): -3.73% | remaining activity at 3 µM (CDK16/cyclin Y; [1]): 104% | remaining activity at 3 µM (CDK16/cyclin Y; [2]): 103% | inhibition at 3 µM (IKKb/IKBKB): 3.75% | remaining activity at 3 µM (IKKb/IKBKB; [1]): 95.4% | remaining activity at 3 µM (IKKb/IKBKB; [2]): 97.1% | inhibition at 3 µM (MARK2/PAR-1Ba): 1.3% | remaining activity at 3 µM (MARK2/PAR-1Ba; [1]): 99.6% | remaining activity at 3 µM (MARK2/PAR-1Ba; [2]): 97.8% | inhibition at 3 µM (PDK1/PDPK1): -5.96% | remaining activity at 3 µM (PDK1/PDPK1; [1]): 107% | remaining activity at 3 µM (PDK1/PDPK1; [2]): 105% | inhibition at 3 µM (RSK3): 14.5% | remaining activity at 3 µM (RSK3; [1]): 85.8% | remaining activity at 3 µM (RSK3; [2]): 85.2% | inhibition at 3 µM (ZAP70): -9.21% | remaining activity at 3 µM (ZAP70; [1]): 110% | remaining activity at 3 µM (ZAP70; [2]): 108%
